Test results taken from publication PMC5650372 (Oncotarget, 2017).
Where two headings read alike, the source gives them in different places.

Assays:
pDNA-PK S2056 = test: Western blot of cell-free NHEJ reaction (MCF7 nuclear extract); assay type: biochemical, human
Experimental: (§1) Nuclear protein (10-20 μg) prepared above was pre-treated with compounds as indicated on ice for 15 minutes. Twenty-five nanograms of EcoRI-digested pBluescript DNA (Stratagene, La Jolla, CA) were then added and the mixture was adjusted to 20 μL final volume in NHEJ buffer (50 mM Hepes-KOH pH 8.0, 40 mM KOAc, 1 mM Mg(OAc)2, 1 mM ATP, 0.1 mg/mL BSA, and 1 mM DTT). After incubation at 25°C for 60 minutes, the reaction was terminated by incubation with 1 μg/mL RNase A for 10 minutes followed by treatment with 2 mg/mL Protease K in 0.5% SDS at 55°C for 30 minutes. The reactions were run onto 0.8% agarose and the gel was stained with Sybr Green (S756, Invitrogen, Carlsbad, CA). For Western blots, an aliquot of the same reaction mixture described above was subjected to SDS-PAGE, transferred to the PVDF membrane, and immunoblotted with indicated antibodies.

DNA-PK = DNA-PK (Homo sapiens, UniProt P78527); test: DNA-PK enzyme assay; assay type: biochemical; settings: average ± SEM; CC214-1 n=2
Experimental: (§2) mTOR, DNA-PK and PI3K-alpha assays were to determine percent inhibition. An IC50 value was then
(§3) performed as reported previously. estimated. […]

[1] = tested on: NHEJ in MDA-MB-231 breast cancer cells; test: 384-well image-based cellular NHEJ assay; assay type: cell-based; settings: Homo sapiens; MDA-MB-231, n=3
Description: (§4) ATM and ATR assay and IC50 determination Cellular NHEJ assay
(§5) HA-ATM and FLAG-ATR (HA-labeled ATM, and The experimental design is illustrated in FLAG-labeled ATR) were each transiently expressed in Supplementary Figure 4. Cal-51 breast cancer cells HEK293 cells (293FT cells, Invitrogen Cat: R700-07) were separately transfected with pEGFP plasmid (6085-using Lipofectamine as transfection reagent. Cells were 1, Clontech, Mountain View, CA) digested with either harvested 6 days post transfection and spun down to EcoRI (to measure NHEJ) or StuI (to measure transfection separate cells from media. Cells were then lysed using a efficiency) using a Amaxa cell line nuclearfector kit V lysis buffer (50 mM Tris buffer, (Tris(hydroxylmethyl)- (CCA-1003, Lonza). Immediately after the transfection, aminomethane, pH 7.5), 100 mM NaCl, 50 mM βGOP, the cells were treated with DMSO or compounds at 10% Glycerol, 0.5% Tween 20, 1 mM EDTA, 25 mM indicated concentrations for 24 hours and GFP-positive sodium fluoride (NaF), 20 nM microcystine, 2 mM cells were counted under a fluorescent microscope. NHEJ phenylmethylsulfonylfluoride (PMSF) and protease activity was calculated by the number of GFP-positive inhibitor cocktail) followed by sonication 3 times and a cells in cells transfected with pEGFP-EcoRI divided by final spin at 20,000 rpm for 30 minutes to generate a clear that in cells transfected with pEGFP-StuI, multiplied by lysate. To perform the immunoprecipitation, enzymes were 100. […]
(§6) or FLAG tags. Beads plus enzymes were then washed 3 developed. Different cell lines were transfected using times with lysis buffer and spun down at 1000 rpm for the procedure described above and subsequently seeded 1 minute. Beads plus enzymes were resuspended in lysis into 384-well plates at optimized density for individual buffer and kept at 4°C until assay. Assays for ATM and cell lines. Cells were then treated with compounds at ATR were conducted in a 33P radioactive assay format. increasing concentrations. GFP+ cells were imaged Assay buffer contained the following reagents: 1 mg/mL and quantitated using the IncuCyte (Essen Bioscience, GST-p53 (glutathione S-transferase–p53 fusion protein) Ann Arbor, MI). NHEJ activity was then normalized substrate (expressed in-house), 20 μg/mL calf thymus to the DMSO control and fitted to the Sigmoidal Dose-DNA activator (Sigma), 100 μg/mL BSA, 200 μM EGTA Response Model (IDBS XLFit Model 205; London, UK)

[2] = tested on: NHEJ in PC3 prostate cancer cells; test: 384-well image-based cellular NHEJ assay; assay type: cell-based; settings: Homo sapiens; PC3, n=3
Description: as §4, §5, §6

[3] = tested on: NHEJ in HCT116 colorectal cancer cells; test: 384-well image-based cellular NHEJ assay; assay type: cell-based; settings: Homo sapiens, HCT-116; HCT116, n=3
Description: as §4, §5, §6

NHEJ in Cal-51 cells = test: 384-well image-based cellular NHEJ assay; assay type: cell-based; settings: Homo sapiens; Cal-51, n=3
Description: as §4, §5, §6

ATR [4] = molecular target: T1, ATR (Homo sapiens, UniProt Q13535); test: ATR 33P radioactive kinase assay (immunoprecipitated FLAG-ATR); assay type: biochemical
T1 construct: made in house; host or cells: HEK293 (293FT cells, Invitrogen R700-07), transient transfection, immunoprecipitation on Protein G Sepharose
T1 sequence (Q13535 whole entry): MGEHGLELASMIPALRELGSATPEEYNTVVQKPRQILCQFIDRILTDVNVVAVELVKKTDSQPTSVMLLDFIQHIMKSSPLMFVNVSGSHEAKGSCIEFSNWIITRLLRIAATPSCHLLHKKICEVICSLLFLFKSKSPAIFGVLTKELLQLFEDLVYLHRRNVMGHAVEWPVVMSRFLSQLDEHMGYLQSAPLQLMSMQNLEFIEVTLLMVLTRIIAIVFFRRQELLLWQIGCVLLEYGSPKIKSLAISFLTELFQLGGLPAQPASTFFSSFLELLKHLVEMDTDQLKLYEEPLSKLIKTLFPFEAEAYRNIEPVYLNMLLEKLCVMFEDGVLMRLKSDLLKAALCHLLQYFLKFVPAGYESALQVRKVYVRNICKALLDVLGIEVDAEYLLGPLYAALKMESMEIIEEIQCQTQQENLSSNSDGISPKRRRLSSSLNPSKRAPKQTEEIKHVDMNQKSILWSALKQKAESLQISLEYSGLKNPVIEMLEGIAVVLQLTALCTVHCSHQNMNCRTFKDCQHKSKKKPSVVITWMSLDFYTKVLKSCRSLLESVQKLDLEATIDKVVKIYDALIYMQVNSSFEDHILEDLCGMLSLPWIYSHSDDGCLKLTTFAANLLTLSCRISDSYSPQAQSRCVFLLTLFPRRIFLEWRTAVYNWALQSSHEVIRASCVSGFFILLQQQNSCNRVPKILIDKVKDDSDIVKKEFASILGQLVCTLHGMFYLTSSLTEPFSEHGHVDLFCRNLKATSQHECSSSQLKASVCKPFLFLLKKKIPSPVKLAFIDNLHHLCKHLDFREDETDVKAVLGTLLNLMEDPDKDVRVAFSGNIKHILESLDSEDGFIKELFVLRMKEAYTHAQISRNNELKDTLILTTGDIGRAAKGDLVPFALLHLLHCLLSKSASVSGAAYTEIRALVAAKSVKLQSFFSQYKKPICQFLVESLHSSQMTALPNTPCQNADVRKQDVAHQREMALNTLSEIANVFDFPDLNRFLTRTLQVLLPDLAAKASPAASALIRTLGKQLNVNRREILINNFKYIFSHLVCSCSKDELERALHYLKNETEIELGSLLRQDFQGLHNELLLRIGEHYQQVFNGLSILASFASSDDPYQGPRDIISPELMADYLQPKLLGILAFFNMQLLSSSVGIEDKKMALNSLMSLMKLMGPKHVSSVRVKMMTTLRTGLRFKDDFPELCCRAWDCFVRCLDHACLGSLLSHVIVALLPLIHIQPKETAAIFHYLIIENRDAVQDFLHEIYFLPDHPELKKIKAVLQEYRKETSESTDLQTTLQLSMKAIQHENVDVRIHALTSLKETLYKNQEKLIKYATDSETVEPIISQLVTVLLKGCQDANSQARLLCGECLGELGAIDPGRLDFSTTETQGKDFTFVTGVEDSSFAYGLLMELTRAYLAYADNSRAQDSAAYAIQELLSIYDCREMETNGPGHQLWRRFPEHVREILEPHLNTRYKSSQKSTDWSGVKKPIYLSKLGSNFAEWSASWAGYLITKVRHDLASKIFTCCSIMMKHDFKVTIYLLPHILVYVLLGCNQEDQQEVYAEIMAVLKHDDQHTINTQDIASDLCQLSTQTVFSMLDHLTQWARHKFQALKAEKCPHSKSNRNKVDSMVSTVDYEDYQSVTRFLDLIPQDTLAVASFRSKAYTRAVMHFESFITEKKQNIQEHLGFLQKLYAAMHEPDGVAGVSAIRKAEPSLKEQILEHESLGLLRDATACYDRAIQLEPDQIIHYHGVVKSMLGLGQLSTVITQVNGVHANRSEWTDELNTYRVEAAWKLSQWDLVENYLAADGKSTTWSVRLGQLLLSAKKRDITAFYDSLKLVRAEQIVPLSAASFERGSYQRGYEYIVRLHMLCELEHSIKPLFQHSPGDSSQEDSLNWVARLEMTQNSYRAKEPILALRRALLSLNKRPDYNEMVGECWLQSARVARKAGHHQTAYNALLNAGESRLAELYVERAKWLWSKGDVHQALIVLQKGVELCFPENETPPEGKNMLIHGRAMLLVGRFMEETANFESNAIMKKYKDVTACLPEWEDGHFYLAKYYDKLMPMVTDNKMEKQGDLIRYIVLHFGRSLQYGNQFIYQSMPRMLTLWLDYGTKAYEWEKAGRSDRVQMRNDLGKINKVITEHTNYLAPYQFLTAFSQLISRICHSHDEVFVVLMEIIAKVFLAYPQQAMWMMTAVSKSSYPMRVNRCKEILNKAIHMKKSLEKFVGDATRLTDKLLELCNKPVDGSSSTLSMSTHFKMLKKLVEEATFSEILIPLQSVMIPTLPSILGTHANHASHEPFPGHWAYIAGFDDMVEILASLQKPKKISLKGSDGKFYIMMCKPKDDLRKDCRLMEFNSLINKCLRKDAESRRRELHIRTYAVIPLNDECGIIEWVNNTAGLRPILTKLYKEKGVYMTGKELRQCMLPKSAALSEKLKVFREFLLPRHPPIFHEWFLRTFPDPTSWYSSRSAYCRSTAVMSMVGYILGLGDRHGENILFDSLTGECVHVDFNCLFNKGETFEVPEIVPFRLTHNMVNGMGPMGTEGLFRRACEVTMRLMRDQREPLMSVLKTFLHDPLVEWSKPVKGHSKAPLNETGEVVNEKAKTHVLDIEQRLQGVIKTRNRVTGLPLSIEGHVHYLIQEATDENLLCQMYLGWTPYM
Experimental: deficient cell growth in vitro […]
incorporated in the corresponding no inhibitor control mTOR, DNA-PK and PI3K-alpha assays were to determine percent inhibition. An IC50 value was then performed as reported previously. estimated.
as §4
as §5, with “microscope.” for “microscope. NHEJ phenylmethylsulfonylfluoride (PMSF) and protease activity was calculated by the number of GFP-positive inhibitor cocktail) followed by sonication 3 times and a cells in cells transfected with pEGFP-EcoRI divided by final spin at 20,000 rpm for 30 minutes to generate a clear that in cells transfected with pEGFP-StuI, multiplied by lysate. To perform the immunoprecipitation, enzymes were 100.”

[5] = tested on: NCI-H1975 and SW1573 cells; test: Clonogenic assay alone or with etoposide; assay type: cell-based, human; settings: for combination with 6.8 μM etoposide on colony formation: 10 μM compound, 4 hours; for effect on cell survival, single agent: 4 hours treatment alone
Experimental: Media were changed every three days. Plates were incubated for a total of about two weeks then fixed and stained using the DIFF QUIK staining kit. Colonies were imaged and counted.

NHEJ activity = test: Reconstituted cell-free NHEJ assay (MCF7 nuclear extract); assay type: biochemical, human
Experimental: MCF7 human breast cancer cells (5-10 x 10^7 each) were incubated in 5 pellet volumes of cold hypotonic buffer (10 mM Hepes-KOH, pH 7.5, 1.5 mM MgCl2, 5 mM KCl, and 0.5 mM DTT) for 20 minutes and were homogenized in a tight-fitting glass dounce homogenizer for 10-20 strokes. The nuclei were then collected by low-speed centrifugation and nuclear proteins were extracted by high-salt buffer (50 mM Tris-HCl, pH 7.5, 1 M KCl, 2 mM EDTA, 1 mM DTT, and protease inhibitors). The extracted nuclear proteins were dialyzed against 1 L of dialysis buffer (20 mM Tris-HCl, pH 8.0, 20% glycerol, 0.1 M KOAc, 0.5 mM EDTA, and 1 mM DTT) for 1 hour and were used for the in vitro NHEJ assay.
as §1

mTOR kinase = mTOR kinase (Homo sapiens, UniProt P42345); test: mTOR kinase enzyme assay; assay type: biochemical; settings: average ± SEM
Experimental: as §2, §3

ATR [6] = molecular target: T1, ATR; parameters: method as in earlier work; settings: Lit. reported value ref 3; cited from earlier work
ATM = molecular target: T2, ATM (Homo sapiens, UniProt Q13315); parameters: method as in earlier work; settings: Lit. reported value ref 3; cited from earlier work
T2 construct: made in house; host or cells: HEK293 (293FT cells, Invitrogen R700-07), transient transfection, immunoprecipitation on Protein G Sepharose

pATM S1981 = test: Western blot of cell-free NHEJ reaction (MCF7 nuclear extract); assay type: biochemical, human; settings: MCF7 nuclear extract with linear dsDNA
Experimental: as §1

pChk2 T68 = test: as above; assay type: biochemical, human; settings: MCF7 nuclear extract, 0.05, 0.5 or 5 μM
Experimental: as §1

[7] = molecular target: T3, DNA-PKcs, XRCC4 and DNA ligase IV on DNA (Homo sapiens, UniProt P78527); test: DNA end binding assay (MCF7 nuclear extract); assay type: biochemical; settings: 5 μM, MCF7 nuclear extract, 10, 30, 60 minutes
T3 construct: endogenous in cells; host or cells: MCF7 nuclear extract
Description: One kb of DNA fragment, including an EcoRI sequence in the middle, was amplified by PCR using pEGFP as a template and a pair of biotinylated EGFP primers (5′-biotin-[…]-3′ and 5′-biotin-[…]-3′: Valuegene, San Diego, CA). The amplified DNA fragment was cleaved by EcoRI to produce two 0.5 kb biotinylated DNA fragments, and was purified using the QIAquick PCR purification kit (Qiagen). […] An aliquot of the reaction was removed at each time point to separate the supernatant and the beads. The supernatant was subjected to SDS-PAGE and immunoblotting with indicated antibodies. The beads were washed twice with 250 μL of IP buffer (25 mM Hepes-KOH, pH 7.5, 100 mM NaCl, 20% glycerol, 5 mM EDTA, 1 mM DTT, 0.05% Nonidet P-40, 10 mM NaF, and protease inhibitor mixture) and subjected to SDS-PAGE and immunoblotting with indicated antibodies.

Rad51-foci in LoVo cells = test: Rad51-foci immunofluorescence (homologous recombination); assay type: cell-based, human
[8] = concentration series (0.05 to 5 μM)

SMILES	inhibition of pDNA-PK S2056, cell-free (pDNA-PK S2056)	IC50 (DNA-PK) [µM]	IC50 [1] [nM]	IC50 [2] [nM]	IC50 [3] [nM]	IC50 (NHEJ in Cal-51 cells) [nM]	combination with 6.8 μM etoposide on colony formation [5]	effect on cell survival, single agent [5]	inhibition of NHEJ activity, cell-free (NHEJ activity; [8])	IC50 (mTOR kinase) [µM]	inhibition of pATM S1981, cell-free (pATM S1981)	inhibition of pChk2 T68, cell-free (pChk2 T68)	further results
CC(C)(O)c1ccc(-c2cnc3c(n2)N(CC2CCOCC2)CC(=O)N3)cn1 [CC214-2, 6-(6-(2-hydroxypropan-2-yl)pyridin-3-yl)-4-((tetrahydro-2H-pyran-4-yl)methyl)-3,4-dihydropyrazino[2,3-b]pyrazin-2(1H)-one]	did not inhibit	> 10	> 10000	> 10000	> 10000	> 10000	synergy was not observed	minimal effect on cell survival	not changed	–	–	–	IC50 (ATR [4]): > 3000 nM
O=c1cc(N2CCOCC2)oc2c(-c3cccc4c3sc3ccccc34)cccc12 [NU7441, 8-(4-dibenzothienyl)-2-(4-morpholinyl)-4H-1-benzopyran-4-one]	also inhibited	–	630 ± 80	1030 ± 170	6220 ± 6760	2560 ± 840	synergistic effect	minimal effect on cell survival	Inhibition of NHEJ was also observed	1.64 ± 0.2	reduction	also inhibited	IC50 (ATR [6]): > 100 µM; IC50 (ATM): > 100 µM; DNA-PKcs, XRCC4 and DNA ligase IV bound to DNA over time [7]: retained from 10 minutes through the end of the reaction at 60 minutes; Rad51-foci positive nuclei (HR efficiency) (Rad51-foci in LoVo cells; 5 μM compound with 0.1 μM doxorubicin): 10.3%
O=c1[nH]c2ncc(-c3ccc(-c4nc[nH]n4)cc3)nc2n1CCC1CCOCC1 [CC214-1, 6-(4-(1H-1,2,4-triazol-3-yl)phenyl)-1-(2-(tetrahydro-2H-pyran-4-yl)ethyl)-1,3-dihydro-2H-imidazo[4,5-b]pyrazin-2-one]	to a smaller extent	0.141	–	–	–	–	–	–	–	0.002 ± 0.0002	–	–	inhibition of NHEJ activity, cell-free (NHEJ activity; 5 μM): Minimal inhibition
COc1cccc2c1C(=O)c1c(O)c3c(c(O)c1C2=O)C[C@@](O)(C(=O)CO)C[C@@H]3O[C@H]1C[C@H](N)[C@H](O)[C@H](C)O1 [doxorubicin]	–	–	–	–	–	–	–	–	–	–	–	–	Rad51-foci positive nuclei (HR efficiency) (Rad51-foci in LoVo cells; 0.1 μM doxorubicin only): 24%
COc1cc([C@@H]2c3cc4c(cc3[C@@H](O[C@@H]3O[C@@H]5CO[C@@H](C)O[C@H]5[C@H](O)[C@H]3O)[C@H]3COC(=O)[C@H]23)OCO4)cc(OC)c1O [etoposide]	–	–	–	–	–	–	–	substantially impairs survival	–	–	–	–	–
O=c1cc(-c2cccc3c2Sc2ccccc2S3)oc(N2CCOCC2)c1 [KU55933, 2-(4-morpholinyl)-6-(1-thianthrenyl)-4H-pyran-4-one]	not DNA-PK phosphorylation	–	–	–	–	–	–	–	did not inhibit	–	efficiently inhibited	concentration-dependent inhibition	–
